Our source for the EC50 values is US10774053B2, “HIV protease inhibitors” (Gilead Sciences, Inc., priority 2017, dated 2020).

Each structure is given as a SMILES string.

The test deals with HIV-1 (IIIB) in MT-4 cells. Kind of test: microbe, parasite or virus in culture. In kind it is cell-based. Conditions: Human immunodeficiency virus 1, IIIB, MT4, MT-4 cells, HIV-1; read-out: MT4 EC50.

For the compound `CC(C)(C)C[C@]1(c2ccc(-c3cn(C4CC4)nc3F)cc2)NC(=N)N([C@H](COC(=O)NC2(C(F)(F)F)CC2)c2ccc(Cl)c(-n3ncnc3C(F)F)c2)C1=O` [Compound 318], the EC50 (in general, the concentration giving half of the maximal effect) is 13.2 nM.
As for `CC(C)(C)C[C@]1(c2ccc(-c3cnn(C4CC4)c3)cc2)NC(=N)N([C@H](COC(=O)NC2(C(F)(F)F)CC2)c2ccc(Cl)c(-n3cncn3)c2)C1=O` [Compound 319], the figure is 17.8 nM.
As for `CC(C)(C)C[C@]1(c2ccc(-c3ccccn3)cc2)NC(=N)N([C@H](COC(=O)NC2(C(F)(F)F)CC2)c2ccc(Cl)c(-n3cncn3)c2)C1=O` [Compound 320], the figure is 22.5 nM.
Next, `CC(C)(C)C[C@]1(c2ccc(-c3ccns3)cc2)NC(=N)N([C@H](COC(=O)NC2(C(F)(F)F)CC2)c2ccc(Cl)c(-n3cncn3)c2)C1=O` [Compound 321]: 20.8 nM; `CC(C)(C)C[C@]1(c2ccc(-c3ccsn3)cc2)NC(=N)N([C@H](COC(=O)NC2(C(F)(F)F)CC2)c2cccc(-n3ncnc3C(F)F)c2)C1=O` [Compound 322]: 39 nM.
Regarding `CC1(NC(=O)OC[C@H](c2ccc(Cl)c(-n3cccn3)c2)N2C(=N)N[C@](CC(C)(C)C(F)(F)F)(c3ccc(-c4cnn(C(F)F)c4)cc3)C2=O)CC1` [Compound 323], the EC50 came to 50.7 nM.
As for `CC1(NC(=O)OC[C@H](c2ccc(Cl)c(-n3cccn3)c2)N2C(=N)N[C@](CC(C)(C)C(F)(F)F)(c3ccc(-c4cnn(C5CC5)c4)cc3)C2=O)CC1` [Compound 324], the figure is 27.8 nM; as for `CC(C)(C)C[C@]1(c2ccc(N3CCn4c(nnc4C(F)(F)F)C3)cc2)NC(=N)N([C@H](COC(=O)NC2(C(F)(F)F)CC2)c2ccc(Cl)c(-n3ncnc3C(F)F)c2)C1=O` [Compound 326], 52.9 nM.
Next, `CC(C)(F)C[C@]1(c2ccc(-c3cnccn3)cc2)NC(=N)N([C@H](COC(=O)NC2(C(F)(F)F)CC2)c2ccc(Cl)c(-n3ncnc3C(F)F)c2)C1=O` [Compound 328]: 22.4 nM; `CC(C)(F)C[C@]1(c2ccc(-c3ncccn3)cc2)NC(=N)N([C@H](COC(=O)NC2(C(F)(F)F)CC2)c2ccc(Cl)c(-n3ncnc3C(F)F)c2)C1=O` [Compound 329]: 23 nM; `CC(C)(C)C[C@]1(c2ccc(-c3cnn(C(F)F)c3)cc2)NC(=N)N([C@H](COC(=O)N[C@H]2C[C@@H]2C(F)F)c2ccc(Cl)c(-n3ncnc3C(F)F)c2)C1=O` [Compound 332]: 12.3 nM.
As for `CC(C)(C)C[C@]1(c2ccc(-c3cnn(C(F)F)c3)cc2)NC(=N)N([C@H](COC(=O)N[C@@H]2C[C@H]2C(F)F)c2ccc(Cl)c(-n3ncnc3C(F)F)c2)C1=O` [Compound 333], the figure is 10.5 nM; as for `CC(C)(C)C[C@]1(c2ccc(-c3cnn(C(F)F)c3)cc2)NC(=N)N([C@H](COC(=O)N[C@@H]2C[C@H]2F)c2ccc(Cl)c(-n3ncnc3C(F)F)c2)C1=O` [Compound 337], 9.75 nM.
Consider `CC(C)(C)C[C@]1(c2ccc(-c3cnn(C(F)F)c3)cc2)NC(=N)N([C@H](COC(=O)N[C@H]2C[C@@H]2F)c2ccc(Cl)c(-n3ncnc3C(F)F)c2)C1=O` [Compound 338], for which the EC50 amounted to 9.94 nM.
As for `CC(C)(C)C[C@]1(c2ccc(-c3cnn(C(F)F)c3)c(F)c2)NC(=N)N([C@H](COC(=O)N[C@H]2CC2(F)F)c2ccc(Cl)c(-n3ncnc3C(F)F)c2)C1=O` [Compound 340], the figure is 6.67 nM; as for `CC(C)(C)C[C@]1(c2ccc(-c3cnn(C(F)F)c3)cc2)NC(=N)N([C@H](COC(=O)N[C@@H]2CC23CC3)c2ccc(Cl)c(-n3ncnc3C(F)F)c2)C1=O` [Compound 341], 8.54 nM.
As for `CC(C)(C)C[C@]1(c2ccc(-c3cnn(C(F)F)c3)cc2)NC(=N)N([C@H](COC(=O)N[C@H]2CC23CC3)c2ccc(Cl)c(-n3ncnc3C(F)F)c2)C1=O` [Compound 342], the figure is 8.92 nM; as for `C[C@@H](NC(=O)OC[C@H](c1ccc(Cl)c(-n2ncnc2C(F)F)c1)N1C(=N)N[C@](CC(C)(C)C)(c2ccc(-c3cnn(C(F)F)c3)cc2)C1=O)C(F)F` [Compound 343], 17 nM; as for `CC(C)(C)C[C@]1(c2ccc3nc(C4CC4)ccc3c2)NC(=N)N([C@H](COC(=O)NC2(C(F)(F)F)CC2)c2ccc(Cl)c(-n3ncnc3C(F)F)c2)C1=O` [Compound 353], 8.59 nM.
As for `CC(C)(C)C[C@]1(c2ccc3nc(C(F)F)ccc3c2)NC(=N)N([C@H](COC(=O)NC2(C(F)(F)F)CC2)c2ccc(Cl)c(-n3ncnc3C(F)F)c2)C1=O` [Compound 354], the figure is 5.06 nM; as for `CC(C)(C)C[C@]1(c2ccc(-n3cnnn3)c(F)c2)NC(=N)N([C@H](COC(=O)NC2(C(F)(F)F)CC2)c2ccc(Cl)c(-n3ncnc3C(F)F)c2)C1=O` [Compound 355], 24.6 nM.
In the case of `CC(C)(C)C[C@]1(c2ccc(-c3nnn(C4CC4)n3)cc2)NC(=N)N([C@H](COC(=O)NC2(C(F)(F)F)CC2)c2ccc(Cl)c(-n3ncnc3C(F)F)c2)C1=O` [Compound 356], the EC50 came to 19.5 nM.
As for `Cn1nnc(-c2ccc([C@@]3(CC(C)(C)C)NC(=N)N([C@H](COC(=O)NC4(C(F)(F)F)CC4)c4ccc(Cl)c(-n5ncnc5C(F)F)c4)C3=O)cc2)n1` [Compound 357], the figure is 10.6 nM; as for `Cn1nnnc1-c1ccc([C@@]2(CC(C)(C)C)NC(=N)N([C@H](COC(=O)NC3(C(F)(F)F)CC3)c3ccc(Cl)c(-n4ncnc4C(F)F)c3)C2=O)cc1` [Compound 358], 76.2 nM.
Next, `CC(C)(CC#N)C[C@]1(c2ccc(-c3cnn(C4CC4)c3)cc2)NC(=N)N([C@H](COC(=O)NC2(C(F)(F)F)CC2)c2ccc(Cl)c(-n3ncnc3C(F)F)c2)C1=O` [Compound 362]: 36.4 nM; `CC(C)(C)C[C@]1(c2ccc(-c3cn(C4(C(F)(F)F)CC4)nn3)cc2)NC(=N)N([C@H](COC(=O)NC2(C(F)(F)F)CC2)c2ccc(Cl)c(-n3ncnc3C(F)F)c2)C1=O` [Compound 364]: 21.6 nM.
As for `CC(C)(C)C[C@]1(c2ccc(-c3cnn(C(F)F)c3)cc2)NC(=N)N([C@H](COc2ccc(F)cc2F)c2ccc(Cl)c(-n3ncnc3C(F)F)c2)C1=O` [Compound 365], the figure is 143 nM; as for `C[C@H](NC(=O)OC[C@H](c1ccc(Cl)c(-n2ncnc2C(F)F)c1)N1C(=N)N[C@](CC(C)(C)C)(c2ccn3nccc3c2)C1=O)C(F)(F)F` [Compound 367], 19 nM; as for `CC(C)n1ncc(-c2ccc([C@@]3(CC(C)(C)C)NC(=N)N([C@H](COC(=O)NC4(C(F)(F)F)CC4)c4ccc(Cl)c(-n5ncnc5C(F)F)c4)C3=O)cc2)n1` [Compound 371], 26.7 nM.
`CC(C)(C)C[C@]1(c2ccc(C(F)(F)F)cc2)NC(=N)N([C@H](COC(=O)NC2(C(F)(F)F)CC2)c2ccc(Cl)c(-n3ncnc3C(F)F)c2)C1=O` [Compound 373]: the EC50 came to 49.7 nM.
Next, `CC(C)(C)C[C@]1(c2ccc(-c3cnn(C(F)F)c3)cc2)NC(=N)N([C@H](COC(=O)NC2(C)CC2)c2cccc(-n3ncnc3C(F)F)c2)C1=O` [Compound 375]: 30.8 nM; `CC(C)(C)C[C@]1(c2ccc(-c3cnn(C(F)F)c3)cc2)NC(=N)N([C@H](COC(=O)N(CC(F)F)C2CC2)c2ccc(Cl)c(-n3cncn3)c2)C1=O` [Compound 376]: 12 nM.
Next, `CC(C)(C)C[C@]1(c2ccc(C#CC(C)(C)S(C)(=O)=O)cc2)NC(=N)N([C@H](COC(=O)NC(C)(C)C(F)F)c2ccc(Cl)c(-n3cncn3)c2)C1=O` [Compound 377]: 90.7 nM.
Next, `CC(C)(C)C[C@]1(c2ccc(-c3ncon3)cc2)NC(=N)N([C@H](COC(=O)NC2(C(F)(F)F)CC2)c2ccc(Cl)c(-n3cncn3)c2)C1=O` [Compound 378]: 35.6 nM; `CC(C)(C)C[C@]1(c2ccc(-c3cnn(C4CC4)n3)cc2)NC(=N)N([C@H](CNC(=O)C2CC2)c2ccc(Cl)c(-n3ncnc3C(F)F)c2)C1=O` [Compound 381]: 24.8 nM.
For `CC(C)(C)C[C@]1(c2ccc(-c3cnn(C4CC4)n3)cc2)NC(=N)N([C@H](CNC(=O)C2(C)CC2)c2ccc(Cl)c(-n3ncnc3C(F)F)c2)C1=O` [Compound 382], the EC50 turned out to be 36.5 nM.
As for `CC(C)(C)C[C@]1(c2ccc(-c3cnn(C4CC4)n3)cc2)NC(=N)N([C@H](CNC(=O)CC(F)(F)F)c2ccc(Cl)c(-n3ncnc3C(F)F)c2)C1=O` [Compound 383], the figure is 9.7 nM.
On to `CC(C)(C)C[C@]1(c2ccc(-c3cnn(C4CC4)n3)cc2)NC(=N)N([C@H](CNC(=O)CC2CC2)c2ccc(Cl)c(-n3ncnc3C(F)F)c2)C1=O` [Compound 384], for which the 50% effective concentration (EC50) was 18 nM.
As for `C[C@H](C(=O)NC[C@H](c1ccc(Cl)c(-n2ncnc2C(F)F)c1)N1C(=N)N[C@](CC(C)(C)C)(c2ccc(-c3cnn(C4CC4)n3)cc2)C1=O)C(F)(F)F` [Compound 385], the figure is 12.8 nM.
As for `C[C@@H](C(=O)NC[C@H](c1ccc(Cl)c(-n2ncnc2C(F)F)c1)N1C(=N)N[C@](CC(C)(C)C)(c2ccc(-c3cnn(C4CC4)n3)cc2)C1=O)C(F)(F)F` [Compound 386], the figure is 23.4 nM; as for `CC(C)C(=O)NC[C@H](c1ccc(Cl)c(-n2ncnc2C(F)F)c1)N1C(=N)N[C@](CC(C)(C)C(F)(F)F)(c2ccc(-c3cnn(C4CC4)n3)cc2)C1=O` [Compound 388], 16.9 nM.
As for `C[C@@H](C(=O)NC[C@H](c1ccc(Cl)c(-n2ncnc2C(F)F)c1)N1C(=N)N[C@](CC(C)(C)C(F)(F)F)(c2ccc(-c3cnn(C4CC4)n3)cc2)C1=O)C(F)(F)F` [Compound 390], the figure is 20.9 nM; as for `[2H]C([2H])([2H])OC(=O)NC[C@H](c1ccc(Cl)c(-n2ncnc2C(F)F)c1)N1C(=N)N[C@](CC(C)(C)C(F)(F)F)(c2ccc(-c3cnn(C4CC4)n3)cc2)C1=O` [Compound 393], 27 nM.
